From patent US9351955B2, “Compounds and pharmaceutical compositions thereof for the treatment of cystic fibrosis” (Galapagos NV, priority 2013, dated 2016) come the findings set out here.

pEC50: −log10 of the molar value. Values joined by “and” are separate entries in the source; they are usually repeats but may differ in a detail not shown here. Equal entries are not always repeated.

Type in all cases: cell-based
One assay deals with T1, CFTR-R117H (Homo sapiens, UniProt P13569, R117H).
T1 construct: expressed in transfected cells
T1 sequence (P13569 whole entry R117H): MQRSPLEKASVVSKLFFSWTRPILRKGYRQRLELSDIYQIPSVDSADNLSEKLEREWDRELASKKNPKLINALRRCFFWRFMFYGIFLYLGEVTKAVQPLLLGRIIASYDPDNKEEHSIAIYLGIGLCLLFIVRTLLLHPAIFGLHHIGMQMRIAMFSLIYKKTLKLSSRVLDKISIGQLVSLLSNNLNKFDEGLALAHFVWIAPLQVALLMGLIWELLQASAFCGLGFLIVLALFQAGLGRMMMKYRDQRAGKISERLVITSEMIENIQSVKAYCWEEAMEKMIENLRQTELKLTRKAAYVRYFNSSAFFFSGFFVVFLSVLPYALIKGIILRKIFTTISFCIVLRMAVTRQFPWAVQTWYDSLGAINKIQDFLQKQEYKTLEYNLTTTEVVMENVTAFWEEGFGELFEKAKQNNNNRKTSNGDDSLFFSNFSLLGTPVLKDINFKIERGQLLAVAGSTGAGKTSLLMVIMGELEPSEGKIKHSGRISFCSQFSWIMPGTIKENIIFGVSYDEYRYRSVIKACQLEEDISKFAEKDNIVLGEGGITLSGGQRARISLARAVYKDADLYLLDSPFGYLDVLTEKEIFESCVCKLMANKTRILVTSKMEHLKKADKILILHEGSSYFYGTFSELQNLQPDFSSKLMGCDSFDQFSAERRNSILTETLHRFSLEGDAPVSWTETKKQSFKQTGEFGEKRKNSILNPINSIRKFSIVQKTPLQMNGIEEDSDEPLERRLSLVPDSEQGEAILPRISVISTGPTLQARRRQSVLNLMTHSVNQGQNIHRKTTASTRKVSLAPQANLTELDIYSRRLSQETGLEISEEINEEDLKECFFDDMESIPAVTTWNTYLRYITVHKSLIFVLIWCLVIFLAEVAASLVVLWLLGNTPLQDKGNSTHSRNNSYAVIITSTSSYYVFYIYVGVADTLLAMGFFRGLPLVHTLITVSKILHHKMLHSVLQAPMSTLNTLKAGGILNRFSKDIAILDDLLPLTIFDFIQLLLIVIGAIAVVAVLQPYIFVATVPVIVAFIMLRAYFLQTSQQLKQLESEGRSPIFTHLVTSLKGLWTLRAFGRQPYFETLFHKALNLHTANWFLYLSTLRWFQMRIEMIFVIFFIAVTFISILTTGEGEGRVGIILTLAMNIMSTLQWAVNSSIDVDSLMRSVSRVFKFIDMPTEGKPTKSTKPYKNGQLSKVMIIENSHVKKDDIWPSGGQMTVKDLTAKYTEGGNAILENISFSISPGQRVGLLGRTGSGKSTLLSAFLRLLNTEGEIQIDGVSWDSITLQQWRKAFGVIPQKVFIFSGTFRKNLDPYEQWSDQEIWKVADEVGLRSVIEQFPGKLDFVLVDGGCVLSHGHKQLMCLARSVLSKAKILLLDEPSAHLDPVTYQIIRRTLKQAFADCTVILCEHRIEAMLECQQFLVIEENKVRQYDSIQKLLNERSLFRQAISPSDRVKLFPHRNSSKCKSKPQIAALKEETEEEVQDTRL
The assay can be described thus: YFP-halide influx assay for the CFTR-R117H. As to conditions: CFTR-R117H mutant; read-out: EC50 measured by YFP-halide influx assay for the CFTR-R117H. The gist of the method:
(§1)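 HEK293 cells reverse-transfected with mutant CFTR and halide-sensitive YFP H148Q/I152L/F47L reporter, then expressed 24 h at 37 °C, 5% CO2. Fluorescence quenching recorded for 7 s after I^− injection; response expressed as 1−F/F0, with EC50 derived from response versus compound concentration.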

For another assay, the target named is T2, CFTR-G178R (Homo sapiens, UniProt P13569, G178R).
T2 construct: expressed in transfected cells
T2 sequence (P13569 whole entry G178R): as the sequence (P13569 whole entry R117H) above, with H117R, G178R counted along it
Description: YFP-halide influx assay for the CFTR-G178R. As to conditions: read-out: EC50 measured by YFP-halide influx assay for the CFTR-G178R. The procedure, abridged: as §1

For a further assay, the target named is CFTR G551D (Homo sapiens, UniProt P13569, G551D). The assay can be described thus: TECC assay, FRT cells stably transfected with G551D CFTR. As to conditions: high expression CFTR-G551D cells, several values in a cell = repeat determinations. The method, then: 7.2.3. FRT-CFTR G551D Protocol
CFTR G551D, sequence (P13569 whole entry G551D): as the sequence (P13569 whole entry R117H) above, with H117R, G551D counted along it
For G551D recordings, Fish Rat Thyroid (FRT) cells stably transfected with G551D CFTR (a low CFTR-G551D expressing cell line and a high expressing CFTR-G551D cell line from Rosalind Franklin University of medicine and science, Chicago, Ill.) are plated on Transwell supports (Costar 6.5 mm Diameter, […]). The cells are grown for 8-10 d under liquid-liquid interface conditions prior to electrophysiological readings. For electrophysiological recording, the FRT-G551D cells are mounted in the TECC heating plate for electrophysiological measurement and kept at 37° C. The epithelia are bathed in hepes buffered culturing medium without FBS on both the basolateral and apical sides. Apical amiloride is used to inhibit the endogenous ENaC currents while forkolin is applied on both apical and basolateral side to stimulate CFTR. After forskolin triggering, compounds are added on both sides to test their potential for increasing CFTR gating. Measurements are done during a 10 minute timeframe with recordings every 2 min. The increase in ISC is used as a measure for the increased CFTR activity, EC50 values can be generated by measuring impact of different concentrations of compound on ISC on the cells, for this purpose each transwell is treated with a different compound concentration. Inh-172, an inhibitor specific for CFTR, is used to test the specificity of the tested compounds.
When subjected to this protocol, the following EC50 are measured.

For assay [1], the target named is T3, CFTR ΔF508 mutant (Homo sapiens, UniProt P13569, DEL508-508).
T3 construct: expressed in transfected cells; host or cells: CFBE41o- (adenoviral transduction)
T3 sequence (P13569 with tags, fused parts or gaps DEL508-508): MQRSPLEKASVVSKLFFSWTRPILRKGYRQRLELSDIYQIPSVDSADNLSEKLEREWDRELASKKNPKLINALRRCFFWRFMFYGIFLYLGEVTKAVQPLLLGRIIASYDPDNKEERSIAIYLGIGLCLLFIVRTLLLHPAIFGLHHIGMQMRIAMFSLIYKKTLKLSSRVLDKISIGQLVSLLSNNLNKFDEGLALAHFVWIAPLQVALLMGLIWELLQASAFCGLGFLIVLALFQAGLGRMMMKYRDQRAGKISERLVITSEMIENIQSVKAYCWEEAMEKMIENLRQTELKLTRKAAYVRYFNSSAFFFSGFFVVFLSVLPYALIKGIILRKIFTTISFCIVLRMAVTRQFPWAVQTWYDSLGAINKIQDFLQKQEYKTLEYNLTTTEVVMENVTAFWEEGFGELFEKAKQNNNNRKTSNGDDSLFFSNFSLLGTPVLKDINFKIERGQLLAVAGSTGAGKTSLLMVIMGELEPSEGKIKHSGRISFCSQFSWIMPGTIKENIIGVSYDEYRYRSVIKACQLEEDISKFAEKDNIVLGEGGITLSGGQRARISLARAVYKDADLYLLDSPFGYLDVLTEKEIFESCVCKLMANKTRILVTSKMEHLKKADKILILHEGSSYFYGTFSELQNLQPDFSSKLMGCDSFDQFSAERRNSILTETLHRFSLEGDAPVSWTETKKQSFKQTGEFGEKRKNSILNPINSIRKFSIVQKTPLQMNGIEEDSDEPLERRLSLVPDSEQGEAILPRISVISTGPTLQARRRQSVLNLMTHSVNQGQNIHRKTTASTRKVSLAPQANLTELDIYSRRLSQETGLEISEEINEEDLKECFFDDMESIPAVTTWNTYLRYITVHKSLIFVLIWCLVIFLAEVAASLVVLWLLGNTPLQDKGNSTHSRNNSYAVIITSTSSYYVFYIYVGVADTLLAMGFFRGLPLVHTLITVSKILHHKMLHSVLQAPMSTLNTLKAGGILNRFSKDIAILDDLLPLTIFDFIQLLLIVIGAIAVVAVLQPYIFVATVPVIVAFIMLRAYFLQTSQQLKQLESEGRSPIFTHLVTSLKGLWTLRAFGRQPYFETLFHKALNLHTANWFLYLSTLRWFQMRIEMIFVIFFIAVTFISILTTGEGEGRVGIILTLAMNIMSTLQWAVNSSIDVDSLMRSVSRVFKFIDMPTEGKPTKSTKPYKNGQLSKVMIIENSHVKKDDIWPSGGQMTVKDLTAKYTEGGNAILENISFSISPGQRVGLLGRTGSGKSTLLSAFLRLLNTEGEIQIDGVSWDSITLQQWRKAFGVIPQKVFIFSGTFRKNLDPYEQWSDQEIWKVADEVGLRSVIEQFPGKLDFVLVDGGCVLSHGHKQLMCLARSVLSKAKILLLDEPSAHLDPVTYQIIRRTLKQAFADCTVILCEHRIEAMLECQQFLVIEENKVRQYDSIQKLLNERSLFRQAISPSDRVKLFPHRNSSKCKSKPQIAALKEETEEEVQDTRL
The assay can be described thus: YFP-halide influx assay for the CFTR-ΔF508 mutation (384 well, CFBE41o- cells, FDSS/μCell). As to conditions: forskolin 10.67 μM, fluorescence after 36 seconds, read-out: EC50 measured by YFP-halide influx assay for the CFTR-ΔF508. The gist of the method:
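CFBE41o- cells were adenovirally transduced with ΔF508 CFTR and the YFP H148Q/I152L reporter. Cells were then held 24 h at 27 °C or treated 24 h at 37 °C with a CFTR modulator. Iodide-induced quench was recorded for 2 min, and EC50 was derived from 1−F/F0 at 36 s against compound concentration.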

The target of assay [2] is T3, CFTR ΔF508 mutant. The assay can be described thus: YFP-halide influx assay for the CFTR-ΔF508 mutation (96 well, CFBE41o- cells). As to conditions: compounds of the invention, 96 well, forskolin 10.67 μM, read-out: EC50 measured by YFP-halide influx assay for the CFTR-ΔF508. The procedure, abridged: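 CFBE41o- cells were adenovirally transduced with CFTR ΔF508 and the halide-sensitive YFP H148Q/I152L. They were then corrected either at 27 °C for 24 h or with a CFTR modulator for 24 h at 37 °C. After iodide injection, YFP quenching over 7 s was expressed as 1−F/F0, and EC50 was derived from the concentration–response plot.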

As for `CC1(C)Cc2c(sc(NC(=O)c3ccn[nH]3)c2C(N)=O)C(C)(C)O1` [Compound 2, N-(3-carbamoyl-5,5,7,7-tetramethyl-5,7-dihydro-4H-thieno[2,3-c]pyran-2-yl)-1H-pyrazole-5-carboxamide], the pEC50 is 6.78 at CFTR-R117H; 7.24 on CFTR-G178R; 7.18 and 7.04 and 7.07 and 7.21 and 7.24 and 7.06 on CFTR G551D; 8.47 at CFTR ΔF508 mutant [1]; 8.00 on CFTR ΔF508 mutant [2].

Consider `CC1(C)Cc2c(sc(NC(=O)C3(O)CC3)c2C(N)=O)C(C)(C)O1` [Compound 4, 2-(1-hydroxycyclopropanecarboxamido)-5,5,7,7-tetramethyl-5,7-dihydro-4H-thieno[2,3-c]pyran-3-carboxamide], for which the values for the pEC50 on CFTR ΔF508 mutant [1] and at CFTR ΔF508 mutant [2] were 7.65 and 7.49, respectively.

On to `CC1(C)Cc2c(sc(NC(=O)C3(CO)CC3)c2C(N)=O)C(C)(C)O1` [Compound 9, 2-(1-(hydroxymethyl)cyclopropanecarboxamido)-5,5,7,7-tetramethyl-5,7-dihydro-4H-thieno[2,3-c]pyran-3-carboxamide], for which the pEC50 was 6.36 at CFTR-R117H; 6.16 at CFTR-G178R; 6.44 and 6.28 and 6.16 and 6.40 and 6.29 on CFTR G551D; 7.82 on CFTR ΔF508 mutant [1]; 7.55 on CFTR ΔF508 mutant [2].

As to `CC1(C)Cc2c(sc(NC(=O)C(C)(C)CO)c2C(N)=O)C(C)(C)O1` [Compound 10, 2-(3-hydroxy-2,2-dimethylpropanamido)-5,5,7,7-tetramethyl-5,7-dihydro-4H-thieno[2,3-c]pyran-3-carboxamide], the pEC50 on CFTR ΔF508 mutant [1] is 7.13; on CFTR ΔF508 mutant [2], 6.92.

As usually defined, the pEC50 is the negative decadic logarithm of the EC50, by convention in mol/L.
